Key:
GDF8 = experiment: AlphaScreen SureFire SMAD3 (p-Ser423/425) assay, GDF8-stimulated (GDF pSMAD (MPC11)); format: cell-based; details: p-SMAD-3 (Ser423/425)
Source text: (§1) Example 2: AlphaScreen® SureFire® SMAD3 (p-Ser423/425) Assay
(§2) The p-SMAD-3 (Ser423/425) SureFire® assay has been designed to measure the phosphorylation of endogenous cellular p-SMAD-3 (Ser423/425) in cell lysates and is a system for the screening of both modulators of receptor activation (e.g. agonists and antagonists) as well as agents acting intracellularly, such as small molecule inhibitors of upstream events. The assay will measure p-SMAD-3 (Ser423/425) activation by either cloned or endogenous receptors, and can be applied to primary cells.
(§3) P-SMAD-3 (Ser423/425) SureFire® Assay Protocols
(§4) 96-well Assay Protocol for 293FT and RMS13 adherent cells can be carried out manually or in high throughput with liquid handling robots.
(§5) The cells (80 μL of cells for 96 well plates) were plated in collagen coated tissue culture plates in RPMI or FreeStyle medium (Invitrogen) and incubated overnight. For manual analysis, 6 plates for GDF8, 6 plates for TGFβ, and optionally 6 plates for Alk5ca(ALK5 constitutively active) were used.
(§6) The compound dilution plates were prepared as follows: 12 μL of DMSO was transferred into first column of 96-well plate, and 16 μL of DMSO was transferred into columns 2-12 of the 96-well plate. 12 μL of compound solution was transferred into first column of the DMSO-containing 96-well plate. Three-fold dilution was performed up to column 10 of the DMSO-containing 96-well plate.
(§7) The plate containing cells were treated with compounds for about 10 minutes, and then ligand was added. GDF8 or TGFb was added to plates to stimulate. 293FL cells were stimulated for 90 minutes at 37° C.; and RMS13 cells were stimulated for 60 minutes at 37° C. The medium was then removed from the cells, and 1× Lysis Buffer (about 25 μL) was added and the plate was gently agitated on plate shaker for 5-10 minutes.
(§8) The lysate (5 μL) was then placed into 384-well shallow plates avoiding the generation of bubbles. To this, the Reaction Buffer+Activation Buffer+AlphaScreen® Acceptor beads mixture (5 μL) was added. The plate was sealed with adhesive cover and shielded from light (e.g., with metal foil), and agitated gently on plate shaker for 2 hours at room temperature.
(§9) Dilution buffer+AlphaScreen® Donor beads (2 μL) was then added, and the plate was intubated on the plate shaker for an additional 1½ hours. After completion, the plate was read on Synergy-4 or Enspire plate reader, using AlphaScreen® pSMAD3® settings.
(§10) Representative results for inhibition of GDF8 (data=GDF pSMAD (MPC11) (μM)) and TGF-β (data=TGF-β pSMAD (MPC-11) (μM)) signaling are shown in Table 1: […]

TGF-β = experiment: AlphaScreen SureFire SMAD3 (p-Ser423/425) assay, TGF-β-stimulated (TGF-β pSMAD (MPC-11)); format: cell-based; details: p-SMAD-3 (Ser423/425)
Source text: as §1, §2, §3, §4, §5, §6, §7, §8, §9, §10

[1] = Mus musculus, MPC-11, inhibition of GDF8 signaling
[2] = Mus musculus, MPC-11, inhibition of TGF-β signaling

## Fc1ccc(-c2ncc(F)c(Nc3ccc4[nH]ncc4c3)n2)cc1F [Compound 35, N-(2-(3,4-Difluorophenyl)-5-fluoropyrimidin-4-yl)-1H-indazol-5-amine]
GDF8; [1]
  IC50: 0.258 µM
TGF-β; [2]
  IC50: 2 µM

## Fc1cccc(-c2ncc(F)c(Nc3ccc4[nH]ncc4c3)n2)c1 [Compound 36, N-(5-Fluoro-2-(3-fluorophenyl)pyrimidin-4-yl)-1H-indazol-5-amine]
GDF8; [1]
  IC50: 0.555 µM
TGF-β; [2]
  IC50: 3.06 µM

## Fc1cnc(-c2ccccc2)nc1Nc1ccc2[nH]ncc2c1 [Compound 37, N-(5-Fluoro-2-phenylpyrimidin-4-yl)-1H-indazol-5-amine]
GDF8; [1]
  IC50: 0.459 µM
TGF-β; [2]
  IC50: 3.26 µM

## Cc1cnc(-c2ccccc2F)nc1Nc1ccc2[nH]ncc2c1 [Compound 38, N-(2-(2-Fluorophenyl)-5-methylpyrimidin-4-yl)-1H-indazol-5-amine]
GDF8; [1]
  IC50: 0.125 µM
TGF-β; [2]
  IC50: 0.339 µM

## Cc1ccccc1-c1ncc(C)c(Nc2ccc3[nH]ncc3c2)n1 [Compound 39, N-(2-(2-Methylphenyl)-5-methylpyrimidin-4-yl)-1H-indazol-5-amine]
GDF8; [1]
  IC50: 0.204 µM
TGF-β; [2]
  IC50: 0.436 µM

## Cc1cnc(-c2ccc(F)c(F)c2)nc1Nc1ccc2[nH]ncc2c1 [Compound 40, N-(2-(3,4-Difluorophenyl)-5-methylpyrimidin-4-yl)-1H-indazol-5-amine]
GDF8; [1]
  IC50: 0.0586 µM
TGF-β; [2]
  IC50: 0.174 µM

## Cc1ccc(C)c(-c2ncc(C)c(Nc3ccc4[nH]ncc4c3)n2)c1 [Compound 41, N-(2-(2,5-Dimethylphenyl)-5-methylpyrimidin-4-yl)-1H-indazol-5-amine]
GDF8; [1]
  IC50: 0.105 µM
TGF-β; [2]
  IC50: 0.168 µM

## Cc1cc(F)ccc1-c1nccc(Nc2ccc3[nH]ncc3c2)n1 [Compound 42, N-(2-(4-Fluoro-2-methylphenyl)pyrimidin-4-yl)-1H-indazol-5-amine]
GDF8; [1]
  IC50: 0.0076 µM
TGF-β; [2]
  IC50: 0.0533 µM

## Cc1cc(-c2nccc(Nc3ccc4[nH]ncc4c3)n2)ccc1F [Compound 43, N-(2-(4-Fluoro-3-methylphenyl)pyrimidin-4-yl)-1H-indazol-5-amine]
GDF8; [1]
  IC50: 0.041 µM
TGF-β; [2]
  IC50: 0.185 µM

## Nc1ccccc1-c1nccc(Nc2ccc3[nH]ncc3c2)n1 [Compound 44, N-(2-(2-Aminophenyl)pyrimidin-4-yl)-1H-indazol-5-amine]
GDF8; [1]
  IC50: 0.209 µM
TGF-β; [2]
  IC50: 1.84 µM

## FC(F)(F)c1cccc(-c2nccc(Nc3ccc4[nH]ncc4c3)n2)c1 [Compound 45, N-(2-(3-Trifluoromethylphenyl)pyrimidin-4-yl)-1H-indazol-5-amine]
GDF8; [1]
  IC50: 0.652 µM
TGF-β; [2]
  IC50: 4.37 µM

## COc1ccc(-c2nccc(Nc3ccc4[nH]ncc4c3)n2)c(C)c1 [Compound 46, N-(2-(4-Methoxy-2-methylphenyl)pyrimidin-4-yl)-1H-indazol-5-amine]
GDF8; [1]
  IC50: 0.011 µM
TGF-β; [2]
  IC50: 0.0659 µM

## COc1cc2nccc(Nc3ccnc(-c4ccc(F)cc4C)n3)c2cc1OC [Compound 47, N-(2-(4-Fluoro-2-methylphenyl)pyrimidin-4-yl)-6,7-dimethoxyquinolin-4-amine]
GDF8; [1]
  IC50: 0.0344 µM
TGF-β; [2]
  IC50: 0.0444 µM

## Cc1ccc(F)c(-c2nccc(Nc3ccc4[nH]ncc4c3)n2)c1 [Compound 48, N-(2-(2-Fluoro-5-methylphenyl)pyrimidin-4-yl)-1H-indazol-5-amine]
GDF8; [1]
  IC50: 0.192 µM
TGF-β; [2]
  IC50: 0.595 µM

## Cc1cc(-c2ncc(C)c(Nc3cnc4[nH]ncc4c3)n2)ccc1F [Compound 49, N-(2-(4-Fluoro-3-methylphenyl)-5-methylpyrimidin-4-yl)-1H-pyrazolo[3,4-b]pyridin-5-amine]
GDF8; [1]
  IC50: 0.545 µM
TGF-β; [2]
  IC50: 0.349 µM

## Fc1ccc(-c2nc(Nc3cnc4[nH]ncc4c3)c3cc[nH]c3n2)cc1 [Compound 50, N-(2-(4-Fluorophenyl)-7H-pyrrolo[2,3-d]pyrimidin-4-yl)-1H-pyrazolo[3,4-b]pyridin-5-amine]
GDF8; [1]
  IC50: 1.05 µM
TGF-β; [2]
  IC50: 3.49 µM

## Cc1cc(-c2ncc(C)c(Nc3cc4cn[nH]c4cc3C)n2)ccc1F [Compound 51, N-(2-(4-Fluoro-3-methylphenyl)-5-methylpyrimidin-4-yl)-6-methyl-1H-indazol-5-amine]
GDF8; inhibition of GDF8 signaling
  IC50: 0.777 µM
TGF-β; inhibition of TGF-β signaling
  IC50: 0.829 µM

## Cc1cccc(-c2ncc(C)c(Nc3cc4cn[nH]c4cc3C)n2)c1 [Compound 52, N-(2-(3-Methylphenyl)-5-methylpyrimidin-4-yl)-6-methyl-1H-indazol-5-amine]
GDF8; [1]
  IC50: 0.234 µM
TGF-β; [2]
  IC50: 0.322 µM

## Cc1cc2[nH]ncc2cc1Nc1nc(-c2ccc(F)cc2)ncc1C [Compound 53, N-(2-(4-Fluorophenyl)-5-methylpyrimidin-4-yl)-6-methyl-1H-indazol-5-amine]
GDF8; [1]
  IC50: 0.54 µM
TGF-β; [2]
  IC50: 0.543 µM

## Cc1cc2[nH]ncc2cc1Nc1nc(-c2ccc(F)c(F)c2)ncc1C [Compound 54, N-(2-(3,4-Difluorophenyl)-5-methylpyrimidin-4-yl)-6-methyl-1H-indazol-5-amine]
GDF8; [1]
  IC50: 0.491 µM
TGF-β; [2]
  IC50: 0.662 µM

## Cc1ccc(C)c(-c2ncc(C)c(Nc3cc4cn[nH]c4cc3C)n2)c1 [Compound 55, N-(2-(2,5-Dimethylphenyl)-5-methylpyrimidin-4-yl)-6-methyl-1H-indazol-5-amine]
GDF8; [1]
  IC50: 0.26 µM
TGF-β; [2]
  IC50: 0.629 µM

## Cc1cc(-c2ncc(C)c(Nc3cc4cn[nH]c4cc3C)n2)ccc1F [Compound 56, N-(2-(4-Fluoro-3-methylphenyl)-5-methylpyrimidin-4-yl)-6-methyl-1H-indazol-5-amine]
GDF8; inhibition of GDF8 signaling
  IC50: 0.184 µM
TGF-β; inhibition of TGF-β signaling
  IC50: 0.281 µM

## Cc1cnc(-c2cccc(F)c2)nc1Nc1cc2cn[nH]c2cc1F [Compound 57, 6-Fluoro-N-(2-(3-fluorophenyl)-5-methylpyrimidin-4-yl)-1H-indazol-5-amine]
GDF8; [1]
  IC50: 0.853 µM
TGF-β; [2]
  IC50: 1.82 µM

## Cc1cccc(-c2ncc(C)c(Nc3cc4cn[nH]c4cc3F)n2)c1 [Compound 58, 6-Fluoro-N-(2-(3-methylphenyl)-5-methylpyrimidin-4-yl)-1H-indazol-5-amine]
GDF8; [1]
  IC50: 0.394 µM
TGF-β; [2]
  IC50: 0.808 µM

## Cc1ccc(C)c(-c2ncc(C)c(Nc3cc4cn[nH]c4cc3F)n2)c1 [Compound 59, 6-Fluoro-N-(2-(2,5-dimethylphenyl)-5-methylpyrimidin-4-yl)-1H-indazol-5-amine]
GDF8; [1]
  IC50: 0.332 µM
TGF-β; [2]
  IC50: 0.558 µM

## Cc1cnc(-c2ccc(F)c(F)c2)nc1Nc1cc2cn[nH]c2cc1F [Compound 60, 6-Fluoro-N-(2-(3,4-difluorophenyl)-5-methylpyrimidin-4-yl)-1H-indazol-5-amine]
GDF8; [1]
  IC50: 0.454 µM
TGF-β; [2]
  IC50: 1.04 µM

## Cc1cc(-c2ncc(C)c(Nc3cc4cn[nH]c4cc3F)n2)ccc1F [Compound 61, 6-Fluoro-N-(2-(4-fluoro-3-methylphenyl)-5-methylpyrimidin-4-yl)-1H-indazol-5-amine]
GDF8; [1]
  IC50: 0.241 µM
TGF-β; [2]
  IC50: 0.535 µM

## COc1cc2[nH]ncc2cc1Nc1nc(-c2ccccc2F)ncc1C [Compound 62, N-(2-(2-Fluorophenyl)-5-methylpyrimidin-4-yl)-6-methoxy-1H-indazol-5-amine]
GDF8; [1]
  IC50: 0.335 µM
TGF-β; [2]
  IC50: 0.381 µM

## COc1cc2[nH]ncc2cc1Nc1nc(-c2ccc(F)c(F)c2)ncc1C [Compound 63, N-(2-(3,4-Difluorophenyl)-5-methylpyrimidin-4-yl)-6-methoxy-1H-indazol-5-amine]
GDF8; [1]
  IC50: 0.312 µM
TGF-β; [2]
  IC50: 0.395 µM

From patent US11021468B2, “TGF-ß inhibitors” (Rigel Pharmaceuticals, Inc., priority 2015, dated 2021)
